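Step 1: Grow cells in 96-well plates. Step 2: Expose to compound for 48 hours at 5 concentrations. Step 3: Interpolate endpoints linearly; if unreached, use highest concentration. GI50: concentration for 50% inhibition of growth. The concentration for full growth arrest is given as TGI.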 A value given as a limit tells only on which side of the number the result lay.

Among the test systems are OVCAR-5 ovarian; SF-268 CNS; DU-145 prostate; SNB-19 CNS; SK-MEL-5 melanoma; HCC-2998 colon; K-562 leukemia; OVCAR-4 ovarian.
Holding throughout (experiment): growth of human tumour cells (NCI), 48 h

On to `O=C1/C(=C/c2ccccc2[N+](=O)[O-])Cc2ccccc21`, for which the GI50 in the assay with OVCAR-5 ovarian was 2.19 µM; in the assay with SF-268 CNS it was 3.1 µM; in the assay with DU-145 prostate, 1.86 µM; in the assay on SNB-19 CNS, 10.6 µM; in the assay on SK-MEL-5 melanoma, 3.11 µM; in the assay on HCC-2998 colon it was 1.64 µM. Moreover, the GI50 in the assay on K-562 leukemia is 3.4 µM; in the assay with OVCAR-4 ovarian, 2.95 µM. Besides, the TGI in the assay with OVCAR-5 ovarian turned out to be 5.36 µM; with SF-268 CNS it was 29.6 µM; in the assay with DU-145 prostate, 3.51 µM; in the assay on SNB-19 CNS, 41.2 µM; with SK-MEL-5 melanoma, 14 µM; in the assay on HCC-2998 colon, 3.14 µM. Moreover, the TGI in the assay on K-562 leukemia was greater than 100 µM; in the assay on OVCAR-4 ovarian, 29.4 µM.

As to `COc1ccc(-c2nc(Nc3cc(C)[nH]n3)c3ccccc3n2)cc1`, the GI50 was 2.25 µM in the assay on OVCAR-5 ovarian; 2.42 µM with SF-268 CNS; 3.75 µM with DU-145 prostate; 2.88 µM in the assay on SNB-19 CNS; 4.11 µM in the assay with SK-MEL-5 melanoma; 3.35 µM in the assay on HCC-2998 colon. Besides, the GI50 with K-562 leukemia is 3.25 µM; with OVCAR-4 ovarian, 2.34 µM. The TGI in the assay with OVCAR-5 ovarian is greater than 88 µM; with SF-268 CNS it was greater than 59.4 µM; in the assay with DU-145 prostate it was greater than 100 µM; in the assay on SNB-19 CNS, greater than 100 µM; in the assay on SK-MEL-5 melanoma, 22.7 µM; in the assay on HCC-2998 colon it was greater than 77.4 µM. For the same compound, the TGI in the assay on K-562 leukemia is greater than 100 µM; in the assay on OVCAR-4 ovarian, greater than 72.5 µM.

As for `COC1C=COC2(C)Oc3c(C)c(O)c4c(c3C2=O)/C(=N/C2CCC(O)OC2C)C=C(NC(=O)/C(C)=C\C(=O)C2CC2C(O)C(C)C(O)C(C)C(OC(C)=O)C1C)C4=O` (stereo not drawn), the TGI with OVCAR-5 ovarian is 8.45 µM; in the assay with SF-268 CNS, 10.5 µM; in the assay with DU-145 prostate, 7.13 µM; with SNB-19 CNS, 11.6 µM; in the assay with SK-MEL-5 melanoma, 4.97 µM; in the assay on HCC-2998 colon, 6.88 µM. The TGI in the assay on K-562 leukemia came to 6.3 µM; in the assay on OVCAR-4 ovarian, 10.6 µM.

Regarding `O=C(OCc1ccc2ccccc2n1)c1cn(C2CC2)c2cc(N3CCN(Cc4ccc5ccccc5n4)CC3)c(F)cc2c1=O`, the GI50 in the assay with OVCAR-5 ovarian is greater than 81.5 µM; in the assay on SF-268 CNS it was greater than 62.5 µM; in the assay on DU-145 prostate, 6.09 µM; in the assay on SNB-19 CNS it was greater than 81.6 µM; with SK-MEL-5 melanoma, 20.1 µM; with HCC-2998 colon it was 34 µM. The GI50 is greater than 53.5 µM with K-562 leukemia and greater than 100 µM in the assay on OVCAR-4 ovarian. The TGI is greater than 100 µM in the assay with OVCAR-5 ovarian; greater than 100 µM in the assay on SF-268 CNS; greater than 100 µM with DU-145 prostate; greater than 100 µM in the assay on SNB-19 CNS; 62.2 µM in the assay on SK-MEL-5 melanoma; greater than 100 µM in the assay on HCC-2998 colon. The TGI in the assay on K-562 leukemia and in the assay with OVCAR-4 ovarian was greater than 100 µM each time.

Consider `CN1CCN(C(=O)c2cc(-c3ccc4ncnc(N5CCc6cc(F)c(Cl)cc65)c4c3)cnc2N)CC1`, for which the GI50 in the assay on OVCAR-5 ovarian was 0.29 µM; in the assay with SF-268 CNS it was 0.216 µM; in the assay on DU-145 prostate it was 0.214 µM; with SNB-19 CNS it was 0.413 µM; in the assay with SK-MEL-5 melanoma, 0.209 µM; in the assay with HCC-2998 colon it was 0.242 µM. Also, the GI50 was 0.234 µM in the assay with K-562 leukemia and 0.3 µM in the assay with OVCAR-4 ovarian. In addition, the TGI in the assay with OVCAR-5 ovarian came out at 13.8 µM; with SF-268 CNS, 2.32 µM; with DU-145 prostate it was 11.3 µM; with SNB-19 CNS, 10.5 µM; in the assay on SK-MEL-5 melanoma, 0.476 µM; in the assay with HCC-2998 colon, 1.65 µM. The values for the TGI with K-562 leukemia and in the assay with OVCAR-4 ovarian were 11.7 µM and 4.22 µM, respectively.

In the case of `O=C(O)c1ccc(C(=O)c2ccccc2)c(C(=O)O)c1`, the TGI with OVCAR-5 ovarian, in the assay on SF-268 CNS, in the assay on DU-145 prostate, in the assay with SNB-19 CNS, in the assay on SK-MEL-5 melanoma and in the assay on HCC-2998 colon was greater than 100 µM throughout. Moreover, the TGI in the assay with K-562 leukemia and in the assay with OVCAR-4 ovarian was greater than 100 µM in each case.

For the compound `CCOc1ccccc1C(=O)N1CCN(c2cc(Cl)cc(Cl)c2)CC1`, the GI50 is 0.0552 µM in the assay on OVCAR-5 ovarian; 0.112 µM in the assay on SF-268 CNS; 0.0468 µM in the assay with DU-145 prostate; 0.0432 µM in the assay with SNB-19 CNS; 0.0345 µM in the assay with SK-MEL-5 melanoma; 0.0381 µM in the assay with HCC-2998 colon. The GI50 in the assay on K-562 leukemia was 0.0286 µM; with OVCAR-4 ovarian it was 0.266 µM. The TGI in the assay on OVCAR-5 ovarian was 16.2 µM; with SF-268 CNS it was 18.7 µM; in the assay with DU-145 prostate it was 14 µM; in the assay with SNB-19 CNS, 15.8 µM; in the assay on SK-MEL-5 melanoma it was 0.177 µM; in the assay on HCC-2998 colon it was 10.7 µM. Also, the TGI amounted to 25.8 µM in the assay with K-562 leukemia and 18.5 µM with OVCAR-4 ovarian.

Regarding `C[C@@H]1CN(Cc2ccc(F)cc2)[C@@H](C)CN1C(=O)c1cc2c(C(=O)C(=O)N(C)C)cn(C)c2cc1Cl`, the GI50 is 21.8 µM in the assay with OVCAR-5 ovarian; 18.5 µM in the assay with SF-268 CNS; 18.8 µM with DU-145 prostate; 17.4 µM in the assay with SNB-19 CNS; 13.1 µM in the assay with SK-MEL-5 melanoma; 17.3 µM with HCC-2998 colon. In addition, the results for the GI50 with K-562 leukemia and with OVCAR-4 ovarian were 20.8 µM and 22.1 µM, respectively. Further, the TGI came to 60.4 µM with OVCAR-5 ovarian; 46.1 µM with SF-268 CNS; 53.1 µM in the assay on DU-145 prostate; 64.1 µM in the assay on SNB-19 CNS; 26 µM in the assay with SK-MEL-5 melanoma; 34.4 µM with HCC-2998 colon. In addition, the TGI is 88.6 µM with K-562 leukemia and greater than 90.3 µM in the assay with OVCAR-4 ovarian.

As to `COc1cc(N2C(=O)[C@H](O)C2c2ccc(SC)cc2)cc(OC)c1OC` (stereo partly drawn), the GI50 in the assay on OVCAR-5 ovarian was 0.0237 µM; in the assay with SF-268 CNS, less than 0.01 µM; in the assay on DU-145 prostate, 0.0238 µM; with SNB-19 CNS, less than 0.01 µM; in the assay with SK-MEL-5 melanoma, less than 0.01 µM; in the assay with HCC-2998 colon, 0.0238 µM. The GI50 in the assay with K-562 leukemia was less than 0.01 µM; with OVCAR-4 ovarian, 0.0275 µM. For the same compound, the TGI is greater than 100 µM in the assay with OVCAR-5 ovarian; 59.3 µM with SF-268 CNS; greater than 100 µM in the assay with DU-145 prostate; greater than 100 µM in the assay with SNB-19 CNS; 0.0304 µM with SK-MEL-5 melanoma; 65.3 µM in the assay with HCC-2998 colon. Further, the TGI in the assay on K-562 leukemia and in the assay with OVCAR-4 ovarian was greater than 100 µM in each case.

Source of the values: PubChem BioAssay (NCI).
